Measurements published in patent US20130225530A1 (priority 2010, published 2013).
Like-named read-outs stand apart in the source and are kept apart here.

How the values were obtained:
[1] = tested on: RNAPII C-terminal domain Ser2 phosphorylation; assay: Phenylephrine-induced phosphorylation of RNAPII in ventricular cardiac myocytes; assay type: cell-based, rat
Description: To test Wogonin in hypertrophic conditions, ventricular cardiac myocytes from neonatal rats were isolated. Hypertrophy was induced by stimulating the cells (cardiomyocytes) with phenylephrine.

leukemic CEM cells = assay: Killing of leukemic CEM T-cells (DNA fragmentation); assay type: cell-based
[2] = tested on: normal proliferating T cells (d6 T cells)
Description: Apoptotic cell death was determined by DNA fragmentation after 48 hours.
Since proliferating cells are in general more susceptible to drug-induced apoptotic cell death, the T cells were activated through PHA stimulation and cultured for further 5 days under supplementation of IL-2 (so called d6 T cells).

CDK6 = CDK6 (Homo sapiens, UniProt Q00534); assay: Inhibition of the kinase CDK6; assay type: biochemical
Description: (§1) Contrary to this, the known compound Quercetin does inhibit the kinases CDK4 and CDK6 (applied at a dose of 50 µM).

CDK4 = CDK4 (Homo sapiens, UniProt P11802); assay: Inhibition of the kinase CDK4; assay type: biochemical
Description: as §1

[3] = tested on: ventricular cardiac myocytes; assay: Tolerance of the compound by ventricular cardiac myocytes; assay type: cell-based, rat; conditions: even at higher doses
Description: To test Wogonin in hypertrophic conditions, ventricular cardiac myocytes from neonatal rats were isolated.

CDK9 = biological target: T1, CDK9 (Homo sapiens, UniProt P50750); assay: Duration of the inhibitory effect on CDK9 in CEM; assay type: cell-based; conditions: dose of 50 μM in CEM
T1 construct: endogenous in cells; host or cells: CEM

CDK2 = CDK2 (Homo sapiens, UniProt P24941); assay: Inhibition of the cellular kinase CDK2; assay type: biochemical
Description: The amount of phosphorylated substrate was determined by Western Blot using phospho-specific antibodies.

CDK6, sequence (Q00534 whole entry, species assumed): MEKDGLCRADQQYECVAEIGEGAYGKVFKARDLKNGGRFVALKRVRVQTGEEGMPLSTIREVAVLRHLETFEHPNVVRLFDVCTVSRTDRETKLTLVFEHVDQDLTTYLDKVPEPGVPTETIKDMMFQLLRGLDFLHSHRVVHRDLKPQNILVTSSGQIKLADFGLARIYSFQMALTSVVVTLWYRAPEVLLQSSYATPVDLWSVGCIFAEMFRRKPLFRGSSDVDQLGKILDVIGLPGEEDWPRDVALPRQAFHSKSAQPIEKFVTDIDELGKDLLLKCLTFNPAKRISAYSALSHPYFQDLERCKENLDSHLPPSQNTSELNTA
CDK4, sequence (P11802 whole entry, species assumed): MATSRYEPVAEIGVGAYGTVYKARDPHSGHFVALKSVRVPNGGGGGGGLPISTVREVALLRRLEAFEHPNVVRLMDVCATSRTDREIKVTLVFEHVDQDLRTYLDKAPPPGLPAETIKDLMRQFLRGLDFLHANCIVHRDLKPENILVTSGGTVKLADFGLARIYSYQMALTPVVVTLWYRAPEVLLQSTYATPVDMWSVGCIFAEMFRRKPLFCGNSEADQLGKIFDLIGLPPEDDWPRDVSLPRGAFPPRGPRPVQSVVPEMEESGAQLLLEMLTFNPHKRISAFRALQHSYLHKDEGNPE
T1 sequence (P50750 whole entry): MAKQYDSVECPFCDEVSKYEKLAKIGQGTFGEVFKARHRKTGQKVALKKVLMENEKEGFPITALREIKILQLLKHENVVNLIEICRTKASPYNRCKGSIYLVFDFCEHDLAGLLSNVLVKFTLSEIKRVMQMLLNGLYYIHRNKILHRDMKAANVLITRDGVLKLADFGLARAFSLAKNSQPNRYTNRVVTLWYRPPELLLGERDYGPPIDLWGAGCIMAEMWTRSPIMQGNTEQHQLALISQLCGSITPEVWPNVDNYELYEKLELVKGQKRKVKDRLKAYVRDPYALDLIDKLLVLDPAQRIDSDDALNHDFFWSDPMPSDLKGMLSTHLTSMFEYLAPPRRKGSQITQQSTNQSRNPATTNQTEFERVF
T1 sequence (O60563 whole entry partner): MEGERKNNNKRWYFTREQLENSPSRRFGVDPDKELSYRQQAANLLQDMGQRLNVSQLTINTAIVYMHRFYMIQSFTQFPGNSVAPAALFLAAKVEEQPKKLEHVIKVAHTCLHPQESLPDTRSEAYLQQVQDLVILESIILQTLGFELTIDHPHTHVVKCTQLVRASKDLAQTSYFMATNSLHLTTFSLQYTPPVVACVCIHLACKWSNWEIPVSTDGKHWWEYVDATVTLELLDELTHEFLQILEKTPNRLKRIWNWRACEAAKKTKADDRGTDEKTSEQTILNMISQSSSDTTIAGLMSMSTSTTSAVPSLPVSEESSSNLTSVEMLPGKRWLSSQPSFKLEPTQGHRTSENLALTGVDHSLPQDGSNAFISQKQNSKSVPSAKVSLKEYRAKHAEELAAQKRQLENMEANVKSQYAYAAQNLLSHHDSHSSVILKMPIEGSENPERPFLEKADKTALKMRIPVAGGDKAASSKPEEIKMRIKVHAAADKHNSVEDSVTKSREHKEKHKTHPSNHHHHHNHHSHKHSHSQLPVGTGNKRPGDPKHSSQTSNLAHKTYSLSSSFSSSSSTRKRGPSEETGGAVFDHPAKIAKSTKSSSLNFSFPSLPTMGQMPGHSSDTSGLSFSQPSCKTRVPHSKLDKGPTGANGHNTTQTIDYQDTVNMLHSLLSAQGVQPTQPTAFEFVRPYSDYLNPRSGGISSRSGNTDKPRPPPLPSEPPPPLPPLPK

Row | SMILES | inhibition of phosphorylation of the RNAPII C-terminal domain at Ser2 (in words) ([1]; no concentration or cell type given) | concentration required to kill leukemic cells (leukemic CEM cells) [nM] | DNA-fragmentation ([2]; human, 48 h, 10 μM) | inhibition of CDK6 (in words) (CDK6; applied at a dose of 50 μM) | inhibition of CDK4 (in words) (CDK4; applied at a dose of 50 μM) | tolerance by the cells (in words) [3] | inhibition of phenylephrine-induced phosphorylation of RNAPII (in words) ([1]; neonatal rat cardiomyocytes, 50 μM in a solution) | duration of inhibitory effect on CDK9 compared with Quercetin (in words) (CDK9) | inhibition of CDK2 (in words) (CDK2) | DNA-fragmentation ([2]; T-cells, 48 hours, dose of 10 μM) | DNA-fragmentation compared with Quercetin (in words) ([2]; T-cells, 48 hours, doses of 10 μM, 50 μM and 100 μM) | toxicity to normal T cells compared to other flavones tested (in words) ([2]; d6 T cells) | toxicity to normal proliferating T cells (in words) ([2]; up to concentrations of 100 μM, in comparison to leukemic CEM cells) | inhibition of CDK6 (in words) (CDK6; no concentration given) | inhibition of CDK4 (in words) (CDK4; no concentration given)
1 | CN1CC[C@H](c2c(O)cc(O)c3c(=O)cc(-c4ccccc4Cl)oc23)[C@H](O)C1 [Flavopiridol, reference compound] | inhibits phosphorylation | ~500 | – | – | – | – | – | – | – | – | – | – | – | – | –
2 | O=c1c(O)c(-c2ccc(O)c(O)c2)oc2cc(O)cc(O)c12 [Quercetin, reference compound] | – | – | more than 15% | does inhibit | does inhibit | – | – | – | – | – | – | – | – | – | –
3 | COc1c(O)cc(O)c2c(=O)cc(-c3ccccc3)oc12 [Wogonin, 5,7-Dihydroxy-8-methoxy-flavone] | – | – | – | do not inhibit | do not inhibit | well supported by the cells | almost completely inhibited | much longer inhibitory effect | does not strongly inhibit | less than 5% | much less DNA-fragmentation | particularly low toxicity | no or very low toxicity | does not strongly inhibit | does not strongly inhibit
